Test results from US20260174677A1, “METHODS OF TREATING INSULIN RESISTANCE AND ASSOCIATED DISORDERS” (The University of Melboune, priority 2022, published 2026).

Tests used:
[1] = I.C.V. fluorosamine in mouse model of late-stage type-2 diabetes (HFHS plus low dose streptozotocin); type: in vivo; conditions: I.C.V. daily for 14 days, HFHS plus low dose streptozotocin mice
Procedure: Mice were maintained on a 12 h light-dark cycle in a temperature-controlled high-barrier facility with free access to food and water per NHMRC Australian Code of Practice for the Care and Use of Animals. C57BL/6J and Balb/C mice were sourced from the Animal Resources Centre, Australian, whereas Agrp-IRES-Cre (Strain #:012899), db/db (strain #: 000697), Npy-GFP (Strain #:006417), Pomc-GFP (Strain #:009593), LSL-Cas9 (Strain #:028551), NZO (Strain #:002105) mice were sourced from Jackson Laboratories, USA. […]
Metabolic measurements were undertaken in the Melbourne Mouse Metabolic Phenotyping Platform (The University of Melbourne, Australia). […] The areas under glucose excursion curves were determined and expressed as mmol/1×min. Fasted (12 h fast) plasma insulin or glucose levels were determined using a Rat/Mouse Insulin ELISA (EZRMI-13K, Merck Millipore, CA) or an Accu-Check glucometer respectively. The HOMA-IR was calculated using the equation [(glucose×insulin)/405]. Adiposity was measured using TD-NMR minispec (Bruker Optics Inc., Billerica, MA). […]

[2] = Intranasal PZ6005 in diet-induced obese mice: food intake and energy expenditure; type: in vivo, mouse; conditions: I.N. 1 or 5 mg/animal/day, Day 8-Day 11 of treatment, diet-induced obesity
Procedure: Mice were acclimated for 24 h and then monitored for 48 h in an environmentally controlled Promethion Metabolic Screening System (Sable Systems International, NV) fitted with indirect open circuit calorimetry, food consumption and activity monitors to measure activity, caloric intake and energy expenditure. Respiratory quotients were calculated as the ratio of CO2 production over O2 consumption respiratory exchange ratio and energy expenditure was calculated using the Weir equation (Kcal h-1=60×(0.003941×VO2+0.001106×VCO2). To account for difference in body mass/composition energy expenditure was analysed and adjusted using ANCOVA using scripts available at the National Mouse Metabolic Phenotyping Centers (MMPC, Nashville, TN, USA) Energy Expenditure Analysis Page (https://www.mmpc.org/shared/regression.aspx).
Conscious mice were restrained by scruffing and inverted parallel to the floor with the chin at ˜180-degree angle with the neck. Using a 10 μL tip, a pipettor was loaded with 5 μl of vehicle (ddH2O) or fluorosamine (1 mg/animal in 20 μl or 5 mg/animal in 20 μl). The tip of the filled pipettor was placed near the left nostril at a 45-degree angle, and the drug was ejected to form a small 5 μl droplet at tip for the mouse to inhale. […]

[3] = I.C.V. fluorosamine: hyperinsulinemic-euglycemic clamps in weight matched obese mice; type: in vivo, mouse; conditions: I.C.V. daily for 3 days
Procedure: For hyperinsulinemic-euglycemic clamps, mice were anesthetised under isoflurane and the right jugular vein was catheterised for infusions, as described previously by Dodd et al., 2018. Catheters were attached to an implant button (BMSW25, RWD Life Sciences, Shenzhen, China). Implant buttons were capped allowing for group mousing of mice and catheters were kept patent by flushing daily with 40 μL saline containing 200 units/mL heparin. On the day of the experiment, food was removed at 7:00 A.M. After 3.5 h fasting, a primed (1 min, 1.25 uCi/min) continuous infusion (0.05 uCi/min) of [3-3H]glucose (NET331A001MC, PerkinElmer, MA) was administered to measure whole-body glucose turnover, as described previously by Dodd et al., 2018. 90 minutes later, mice received a 40 mU/Kg insulin bolus over 10 mins which was followed by continuous insulin infusion (4 mU/kg/min in gelofusine). Euglycemia (˜8-10 mM blood glucose) was maintained by a variable infusion of a 30% glucose solution.
Tail blood samples were collected during steady-state conditions (Ra=Rd) and at 80, 90, 100, 110, and 120 min for determination of Rd and Ra, as described above. At 120 mins, a 13 uCi bolus of [^14C]-2-deoxy-D-glucose (NEC495A250UC, PerkinElmer, MA) was injected into the jugular vein, and blood was sampled at 122, 125, 135, 145, and 155 min. […]

CC(=O)NC1C(OC(C)=O)OC(COC(C)=O)[C@@H](F)C1OC(C)=O (stereo partly shown) [fluorosamine, per-O-acetylated-4-F-N-acetylglucosamine]
remission of metabolic disease (daily blood glucose, glucose tolerance) [1]: promote the remission of metabolic disease | energy expenditure [2]: increases energy expenditure | food intake [2]: decreases food intake | whole-body insulin sensitivity (GIR) in clamp [3]: enhancement of whole-body insulin sensitivity
